Measured values published in patent publication US20230039099A1, “AKT INHIBITORS FOR ENHANCING CHIMERIC T CELL PERSISTENCE” (H. Lee Moffitt Cancer Center and Research Institute, Inc., priority 2019, published 2023).

Key:
CAR T cells = assay: CAR T cell memory phenotype by flow cytometry (LSRII), TCN added during CAR T cell production; type: cell-based, human; conditions: healthy donor PBMC T cells; TCN added on day 2 before first spin transduction; flow cytometry on day 7
Procedure: FIGS. 1A to 1G show TCN increases central memory CAR T cell population. T cells were isolated from healthy donor PBMCs using negative selection. TCN was added on day 2 before the first spin transduction. On day 7 cells were stained for flow cytometry and run on an LSRII.
T cells were isolated from healthy donor PBMCs using negative selection. TCN was added on day 2 before the first spin transduction. On day 7 cells were stained for flow cytometry and run on an LSRII.
For the anti-human CD19 constructs the SFG backbone was modified to include the FMC63 ScFv with a CD8a trans-membrane and hinge domain followed by either CD28 or 4-1BB, and CD3. All SFG constructs were calcium phosphate transfected into H29 cells. Retroviral supernatants of transfected H29 were harvested and used to transduce Phoenix E or RD114 cells. Retroviral supernatant of producer cells was harvested, 0.45 μm filtered, and used to transduce T cells as described. Viability was measured by trypan blue staining and enumerated on an automated cell counter (Bio-Rad). Transduction efficiency was estimated by flow cytometry as a percentage of protein L+ live cells. For downstream experiments CAR T cell doses were normalized based on CAR gene transfer but not sorted to exclude CAR-negative T cells. As a result, total T cell dose was varied.

p-Akt = p-Akt western blot in m1928z CAR T cells stimulated with 3T3-mCD19 targets; type: cell-based, mouse (C57BL6); conditions: C57BL6 splenocyte T cells, TCN added on day 2, day 5 stimulation with 3T3-mCD19 targets for 24 hrs
Procedure: T cells were isolated from C57BL6 splenocyes using negative selection. TCN was added on day 2 before the first spin transduction. On day 5 CAR T cells were stimulated with 3T3-mCD19 targets for 24 hrs. After stimulation cells were lysed and run by western blot. […] T cells were isolated from C57BL6 splenocyes using negative selection. TCN was added on day 2 before the first spin transduction. On day 5 CAR T cells were stimulated with 3T3-mCD19 targets for 24 hrs. After stimulation cells were lysed and run by western blot.

h19BBz CAR T cells [1] = assay: Real time cell killing of 3T3-hCD19 target cells by h19BBz CAR T cells (xCelligence RTCA); type: cell-based, human; conditions: healthy donor T cells, TCN added on day 2
Procedure: (§1) T cells were isolated from healthy donor PBMCs using negative selection. TCN was added on day 2 before the first spin transduction. To measure real time cell killing CAR T cells were stimulated with 3T3-hCD19 target cells using an xCelligence RTCA machine. To measure cytokine secretion CAR T cells were stimulated with target cells for 24 hrs. Supernatant was then collected and run using Ella to measure cytokines. […] T cells were isolated from healthy donor PBMCs using negative selection. TCN was added on day 2 before the first spin transduction. To measure real time cell killing CAR T cells were stimulated with 3T3-hCD19 target cells using an xCelligence RTCA machine. To measure cytokine secretion CAR T cells were stimulated with target cells for 24 hrs. Supernatant was then collected and run using Ella to measure cytokines.

h19BBz CAR T cells [2] = assay: Cytokine secretion of h19BBz CAR T cells stimulated with target cells for 24 hrs (Ella); type: cell-based, human; conditions: healthy donor T cells; TCN added on day 2; target cell stimulation 24 hrs; supernatant run on Ella
Procedure: as §1

T cells = assay: Toxicity of TCN for T cells; type: cell-based; conditions: human healthy donor T cells, in vitro
Procedure: Previous studies have shown drugs given during CART cell production can influence their function. To determine the effect of TCN human healthy donor T cells are treated with TCN prior to CAR transduction. 10 μM of TCN is used because it is the highest non-toxic dose for T cells. After transduction and proliferation in culture in vitro assays are preformed to determine CAR T cell function. These include cytotoxicity, cytokine secretion, RNA-seq, polyfunctional strength index, and CAR T cell phenotype. We next evaluate the function of CAR T cells given TCN during production in vivo. A total of 60 NSG mice are given the human B cell tumor cell line NALM6 containing luciferase on day −7. On day 0, 10 mice per group will be given untransduced, h1928z, or h19BBz CAR T cells produced with or without TCN. Bioluminescence imaging is used to determine tumor burden and measure overall survival.

## CN1N=C(N)c2cn([C@@H]3O[C@H](COP(=O)(O)O)[C@@H](O)[C@H]3O)c3ncnc1c23 [TCN, Triciribine]
CAR T cells
  central memory CAR T cell population: increases
  effector memory CAR T cell population: increases
p-Akt
  p-Akt in m1928z CAR T cells: inhibits
h19BBz CAR T cells [1]
  h19BBz CAR killing: reduces
h19BBz CAR T cells [2]
  h19BBz CAR cytokine secretion: reduces
T cells
  highest non-toxic dose for T cells: 10 µM
